Data taken from US12194048B2, “Use of pyrrolopyridine derivatives for preventing or treating inflammatory diseases” (VORONOI CO., LTD., priority 2020, dated 2025).

What was measured:
[1] = Metabolic stability (MS) evaluation; assay type: in vitro ADME
[2] = test system: naive T cells in the mouse spleen; assay: Regulatory T cell and Th17 cell differentiation; assay type: cell-based; conditions: FIG. 2
Experimental: The experiment was conducted using Harmine as a control.

[3] = Metabolic stability (MS) evaluation; assay type: in vitro ADME; remark: listed apart in the source
CYP 2D6 = CYP 2D6 (Homo sapiens, UniProt P10635); assay: CYP inhibition assay (luminescence); assay type: in vitro ADME
Excerpt: (§1) DDI (Drug Interaction) can be observed in a CYP inhibition assay. A luminescence assay was used to measure and evaluate inhibition activity against 1A2, 2C9, 2C19, 2D6 and 3A4, which are important Phase 1 drug metabolism CYP450 enzymes involved in drug metabolism.

CYP 2C19 = CYP 2C19 (Homo sapiens, UniProt P33261); assay: CYP inhibition assay (luminescence); assay type: in vitro ADME
Excerpt: as §1

CYP 3A4 = CYP 3A4 (Homo sapiens, UniProt P08684); assay: CYP inhibition assay (luminescence); assay type: in vitro ADME
Chain of CYP 3A4 (P08684 whole entry): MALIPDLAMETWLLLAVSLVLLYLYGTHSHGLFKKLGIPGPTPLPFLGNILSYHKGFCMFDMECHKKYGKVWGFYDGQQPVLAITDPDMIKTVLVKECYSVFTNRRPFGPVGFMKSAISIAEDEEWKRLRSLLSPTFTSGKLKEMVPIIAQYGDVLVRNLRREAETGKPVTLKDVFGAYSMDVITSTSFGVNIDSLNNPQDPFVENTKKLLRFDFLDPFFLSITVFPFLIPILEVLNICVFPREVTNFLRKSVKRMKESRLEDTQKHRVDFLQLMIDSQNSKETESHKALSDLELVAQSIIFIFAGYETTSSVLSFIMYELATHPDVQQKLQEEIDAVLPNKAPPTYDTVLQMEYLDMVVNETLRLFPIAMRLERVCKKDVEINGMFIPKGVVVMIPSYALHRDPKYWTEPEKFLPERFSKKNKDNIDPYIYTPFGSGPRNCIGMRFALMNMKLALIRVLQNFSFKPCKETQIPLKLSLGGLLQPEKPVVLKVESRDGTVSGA
Excerpt: as §1

CYP 2C9 = CYP 2C9 (Homo sapiens, UniProt P11712); assay: CYP inhibition assay (luminescence); assay type: in vitro ADME
Excerpt: as §1

CYP 1A2 = CYP 1A2 (Homo sapiens, UniProt P05177); assay: CYP inhibition assay (luminescence); assay type: in vitro ADME
Chain of CYP 1A2 (P05177 whole entry): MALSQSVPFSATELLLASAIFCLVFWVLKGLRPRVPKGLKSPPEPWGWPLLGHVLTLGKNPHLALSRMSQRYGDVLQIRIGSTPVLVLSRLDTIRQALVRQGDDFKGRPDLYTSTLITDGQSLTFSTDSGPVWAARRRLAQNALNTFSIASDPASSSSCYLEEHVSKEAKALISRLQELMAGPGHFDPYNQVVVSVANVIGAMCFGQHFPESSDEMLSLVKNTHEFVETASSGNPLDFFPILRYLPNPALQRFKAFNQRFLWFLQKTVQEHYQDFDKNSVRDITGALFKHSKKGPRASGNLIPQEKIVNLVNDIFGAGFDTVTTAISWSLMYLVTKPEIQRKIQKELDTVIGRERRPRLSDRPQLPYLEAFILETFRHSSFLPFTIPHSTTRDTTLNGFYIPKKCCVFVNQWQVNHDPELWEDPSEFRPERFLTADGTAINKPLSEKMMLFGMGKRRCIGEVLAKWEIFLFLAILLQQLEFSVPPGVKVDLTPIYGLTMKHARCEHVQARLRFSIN
Excerpt: as §1

ERK5 = target: T1, ERK5 (Homo sapiens, UniProt Q13164); assay: scanMAX Kinase analysis panel (DiscoverX); assay type: binding; conditions: drug 1 μM in DMSO; from % control
T1 construct: purchased DiscoverX
Excerpt: (§2) [(Example compound−positive control)/(negative control−positive control)×100]

MAPKAPK2 = target: T2, MAPKAPK2 (Homo sapiens, UniProt P49137); assay: scanMAX Kinase analysis panel (DiscoverX); assay type: binding; conditions: drug 1 μM in DMSO; from % control
T2 construct: purchased DiscoverX
Excerpt: as §2

CSNK1D = target: T3, CSNK1D (Homo sapiens, UniProt P48730); assay: scanMAX Kinase analysis panel (DiscoverX); assay type: binding
T3 construct: purchased DiscoverX scanMAX Kinase analysis panel
Excerpt: as §2

JNK1 = target: T4, JNK1 (Homo sapiens, UniProt P45983); assay: scanMAX Kinase analysis panel (DiscoverX); assay type: binding; conditions: drug 1 μM in DMSO; from % control
T4 construct: purchased DiscoverX scanMAX Kinase analysis panel
Excerpt: as §2

ALK(L1196M) = target: T5, ALK(L1196M) (Homo sapiens, UniProt Q9UM73, L1196M); assay: scanMAX Kinase analysis panel (DiscoverX); assay type: binding; conditions: drug 1 μM in DMSO; from % control
T5 construct: purchased DiscoverX scanMAX Kinase analysis panel
Excerpt: as §2

LTK = target: T6, LTK (Homo sapiens, UniProt P29376); assay: scanMAX Kinase analysis panel (DiscoverX); assay type: binding; conditions: drug 1 μM in DMSO; from % control
T6 construct: purchased DiscoverX scanMAX Kinase analysis panel
Excerpt: as §2

ABL1-nonphosphorylated = target: T7, ABL1-nonphosphorylated (Homo sapiens, UniProt P00519); assay: scanMAX Kinase analysis panel (DiscoverX); assay type: binding; conditions: drug 1 μM in DMSO; from % control
T7 construct: purchased DiscoverX scanMAX Kinase analysis panel
Excerpt: as §2

CHEK2 = target: T8, CHEK2 (Homo sapiens, UniProt O96017); assay: scanMAX Kinase analysis panel (DiscoverX); assay type: binding; conditions: drug 1 μM in DMSO; from % control
T8 construct: purchased DiscoverX scanMAX Kinase analysis panel
T8 sequence (O96017 whole entry): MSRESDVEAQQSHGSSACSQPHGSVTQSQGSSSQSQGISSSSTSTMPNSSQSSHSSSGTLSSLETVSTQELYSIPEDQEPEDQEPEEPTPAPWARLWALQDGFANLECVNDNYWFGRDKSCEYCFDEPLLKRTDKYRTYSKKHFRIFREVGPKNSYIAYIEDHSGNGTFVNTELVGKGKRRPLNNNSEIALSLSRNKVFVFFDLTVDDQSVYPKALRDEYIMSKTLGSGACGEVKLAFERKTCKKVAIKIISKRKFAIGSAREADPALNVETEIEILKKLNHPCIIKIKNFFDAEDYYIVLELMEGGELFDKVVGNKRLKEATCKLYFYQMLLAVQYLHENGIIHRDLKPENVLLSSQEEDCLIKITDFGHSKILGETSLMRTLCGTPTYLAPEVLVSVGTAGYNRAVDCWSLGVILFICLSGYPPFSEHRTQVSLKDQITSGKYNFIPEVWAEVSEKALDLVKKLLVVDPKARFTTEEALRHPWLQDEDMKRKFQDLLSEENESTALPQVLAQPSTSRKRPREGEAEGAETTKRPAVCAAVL
Excerpt: as §2

LRRK2 = target: T9, LRRK2 (Homo sapiens, UniProt Q5S007); assay: scanMAX Kinase analysis panel (DiscoverX); assay type: binding; conditions: drug 1 μM in DMSO; from % control
T9 construct: purchased DiscoverX
Excerpt: as §2

PHKG1 = target: T10, PHKG1 (Homo sapiens, UniProt Q16816); assay: scanMAX Kinase analysis panel (DiscoverX); assay type: binding; conditions: drug 1 μM in DMSO; from % control
T10 construct: purchased DiscoverX scanMAX Kinase analysis panel
Excerpt: as §2

STK39 = target: T11, STK39 (Homo sapiens, UniProt Q9UEW8); assay: scanMAX Kinase analysis panel (DiscoverX); assay type: binding; conditions: drug 1 μM in DMSO; from % control
T11 construct: purchased DiscoverX
Excerpt: as §2

GAK = target: T12, GAK (Homo sapiens, UniProt O14976); assay: scanMAX Kinase analysis panel (DiscoverX); assay type: binding; conditions: drug 1 μM in DMSO; from % control
T12 construct: purchased DiscoverX scanMAX Kinase analysis panel
Excerpt: as §2

JNK3 = target: T13, JNK3 (Homo sapiens, UniProt P53779); assay: scanMAX Kinase analysis panel (DiscoverX); assay type: binding; conditions: drug 1 μM in DMSO; from % control
T13 construct: purchased DiscoverX
T13 sequence (P53779 whole entry): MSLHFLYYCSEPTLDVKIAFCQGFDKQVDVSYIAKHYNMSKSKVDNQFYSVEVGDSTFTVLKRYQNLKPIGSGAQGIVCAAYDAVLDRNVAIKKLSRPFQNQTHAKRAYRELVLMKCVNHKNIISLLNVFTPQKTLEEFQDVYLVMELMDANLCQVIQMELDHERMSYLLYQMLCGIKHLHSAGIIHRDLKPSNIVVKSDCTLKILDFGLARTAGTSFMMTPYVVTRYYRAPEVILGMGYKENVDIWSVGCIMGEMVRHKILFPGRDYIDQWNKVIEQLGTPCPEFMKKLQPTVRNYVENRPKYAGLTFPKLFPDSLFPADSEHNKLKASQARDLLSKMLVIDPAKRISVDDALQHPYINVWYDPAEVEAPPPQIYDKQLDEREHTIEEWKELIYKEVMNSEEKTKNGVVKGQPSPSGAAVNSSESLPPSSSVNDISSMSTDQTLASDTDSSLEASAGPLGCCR
Excerpt: as §2

INSR = target: T14, INSR (Homo sapiens, UniProt P06213); assay: scanMAX Kinase analysis panel (DiscoverX); assay type: binding; conditions: drug 1 μM in DMSO; from % control
T14 construct: purchased DiscoverX
T14 sequence (P06213 28-1382): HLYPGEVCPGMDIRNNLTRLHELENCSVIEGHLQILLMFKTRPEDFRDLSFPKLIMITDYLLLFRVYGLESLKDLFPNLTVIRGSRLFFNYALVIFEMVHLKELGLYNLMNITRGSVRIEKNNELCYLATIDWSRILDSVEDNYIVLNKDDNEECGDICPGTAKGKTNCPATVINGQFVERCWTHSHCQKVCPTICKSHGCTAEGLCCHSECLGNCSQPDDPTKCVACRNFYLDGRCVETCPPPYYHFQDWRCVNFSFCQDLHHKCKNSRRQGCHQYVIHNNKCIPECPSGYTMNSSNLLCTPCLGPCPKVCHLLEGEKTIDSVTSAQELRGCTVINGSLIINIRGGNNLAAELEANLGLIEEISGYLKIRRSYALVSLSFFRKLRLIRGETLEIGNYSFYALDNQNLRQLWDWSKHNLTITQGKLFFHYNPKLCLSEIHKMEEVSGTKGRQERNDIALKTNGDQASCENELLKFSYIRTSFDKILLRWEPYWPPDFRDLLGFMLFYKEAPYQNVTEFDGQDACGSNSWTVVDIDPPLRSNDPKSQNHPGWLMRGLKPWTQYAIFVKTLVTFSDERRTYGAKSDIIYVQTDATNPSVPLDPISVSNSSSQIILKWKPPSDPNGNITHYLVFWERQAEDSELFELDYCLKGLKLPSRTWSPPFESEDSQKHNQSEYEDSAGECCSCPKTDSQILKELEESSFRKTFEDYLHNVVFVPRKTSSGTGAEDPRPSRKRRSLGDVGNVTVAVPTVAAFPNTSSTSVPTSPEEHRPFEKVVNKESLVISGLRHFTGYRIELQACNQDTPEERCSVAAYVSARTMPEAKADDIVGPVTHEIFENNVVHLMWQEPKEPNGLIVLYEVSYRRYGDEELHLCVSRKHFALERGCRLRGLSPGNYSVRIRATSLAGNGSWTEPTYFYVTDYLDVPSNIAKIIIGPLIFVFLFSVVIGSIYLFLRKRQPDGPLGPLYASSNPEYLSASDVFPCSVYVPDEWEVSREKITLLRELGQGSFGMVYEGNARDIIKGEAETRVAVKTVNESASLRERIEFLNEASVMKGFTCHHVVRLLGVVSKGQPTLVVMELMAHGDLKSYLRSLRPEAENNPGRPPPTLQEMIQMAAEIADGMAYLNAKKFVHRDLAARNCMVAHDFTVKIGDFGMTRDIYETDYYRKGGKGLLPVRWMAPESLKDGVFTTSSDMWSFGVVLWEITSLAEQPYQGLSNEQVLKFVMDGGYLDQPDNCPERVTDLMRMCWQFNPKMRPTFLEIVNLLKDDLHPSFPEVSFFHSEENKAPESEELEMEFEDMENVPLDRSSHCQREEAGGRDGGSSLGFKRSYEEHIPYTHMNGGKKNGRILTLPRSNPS
Excerpt: as §2

PLK4 = target: T15, PLK4 (Homo sapiens, UniProt O00444); assay: scanMAX Kinase analysis panel (DiscoverX); assay type: binding; conditions: drug 1 μM in DMSO; from % control
T15 construct: purchased DiscoverX
T15 sequence (O00444 whole entry): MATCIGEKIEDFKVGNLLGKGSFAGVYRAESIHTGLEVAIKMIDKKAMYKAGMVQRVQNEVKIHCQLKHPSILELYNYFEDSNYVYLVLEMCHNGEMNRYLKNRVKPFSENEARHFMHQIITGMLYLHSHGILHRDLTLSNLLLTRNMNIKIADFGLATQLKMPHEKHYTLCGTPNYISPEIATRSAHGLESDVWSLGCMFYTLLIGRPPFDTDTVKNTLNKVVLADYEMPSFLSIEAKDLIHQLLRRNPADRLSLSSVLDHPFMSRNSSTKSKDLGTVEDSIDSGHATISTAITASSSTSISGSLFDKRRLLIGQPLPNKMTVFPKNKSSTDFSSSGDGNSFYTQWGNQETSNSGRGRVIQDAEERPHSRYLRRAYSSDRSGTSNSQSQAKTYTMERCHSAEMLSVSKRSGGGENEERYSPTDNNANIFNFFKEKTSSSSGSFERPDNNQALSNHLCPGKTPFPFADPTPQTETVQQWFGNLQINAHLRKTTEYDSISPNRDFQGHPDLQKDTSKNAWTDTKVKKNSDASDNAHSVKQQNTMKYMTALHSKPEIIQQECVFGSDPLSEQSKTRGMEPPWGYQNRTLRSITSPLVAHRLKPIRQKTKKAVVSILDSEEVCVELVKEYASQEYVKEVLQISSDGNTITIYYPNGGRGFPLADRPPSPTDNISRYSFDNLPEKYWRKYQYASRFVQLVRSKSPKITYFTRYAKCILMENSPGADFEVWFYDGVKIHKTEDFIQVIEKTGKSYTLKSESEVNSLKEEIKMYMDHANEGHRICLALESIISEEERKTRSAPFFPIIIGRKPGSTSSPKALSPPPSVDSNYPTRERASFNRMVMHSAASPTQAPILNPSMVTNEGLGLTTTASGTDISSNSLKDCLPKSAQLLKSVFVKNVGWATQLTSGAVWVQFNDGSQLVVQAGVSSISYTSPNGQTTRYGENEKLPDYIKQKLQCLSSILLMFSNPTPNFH
Excerpt: as §2

JNK2 = target: T16, JNK2 (Homo sapiens, UniProt P45984); assay: scanMAX Kinase analysis panel (DiscoverX); assay type: binding; conditions: drug 1 μM in DMSO; from % control
T16 construct: purchased DiscoverX
Excerpt: as §2

STK33 = target: T17, STK33 (Homo sapiens, UniProt Q9BYT3); assay: scanMAX Kinase analysis panel (DiscoverX); assay type: binding; conditions: drug 1 μM in DMSO; from % control
T17 construct: purchased DiscoverX scanMAX Kinase analysis panel
Excerpt: as §2

LRRK2(G2019S) = target: T18, LRRK2(G2019S) (Homo sapiens, UniProt Q5S007, G2019S); assay: scanMAX Kinase analysis panel (DiscoverX); assay type: binding; conditions: drug 1 μM in DMSO; from % control
T18 construct: purchased DiscoverX scanMAX Kinase analysis panel
Excerpt: as §2

CAMKK2 = target: T19, CAMKK2 (Homo sapiens, UniProt Q96RR4); assay: scanMAX Kinase analysis panel (DiscoverX); assay type: binding; conditions: drug 1 μM in DMSO; from % control
T19 construct: purchased DiscoverX scanMAX Kinase analysis panel
Excerpt: as §2

CAMK2D = target: T20, CAMK2D (Homo sapiens, UniProt Q13557); assay: scanMAX Kinase analysis panel (DiscoverX); assay type: binding; conditions: drug 1 μM in DMSO; from % control
T20 construct: purchased DiscoverX scanMAX Kinase analysis panel
Excerpt: as §2

ALK = target: T21, ALK (Homo sapiens, UniProt Q9UM73); assay: scanMAX Kinase analysis panel (DiscoverX); assay type: binding; conditions: drug 1 μM in DMSO; from % control
T21 construct: purchased DiscoverX scanMAX Kinase analysis panel
Excerpt: as §2

[4] = target: T22, JAK1(JH2domain-pseudokinase) (Homo sapiens, UniProt P23458); assay: scanMAX Kinase analysis panel (DiscoverX); assay type: binding; conditions: drug 1 μM in DMSO; from % control
T22 construct: JAK1 (JH2domain-pseudokinase); purchased DiscoverX
T22 sequence (P23458 583-855 limits assumed): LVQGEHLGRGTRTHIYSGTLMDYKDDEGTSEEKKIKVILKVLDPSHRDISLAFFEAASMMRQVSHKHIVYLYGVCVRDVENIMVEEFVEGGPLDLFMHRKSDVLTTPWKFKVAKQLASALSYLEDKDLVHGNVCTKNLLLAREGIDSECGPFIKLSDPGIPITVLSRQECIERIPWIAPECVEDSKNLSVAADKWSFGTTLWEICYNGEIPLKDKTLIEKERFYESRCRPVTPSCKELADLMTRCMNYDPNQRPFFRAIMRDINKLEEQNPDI
Excerpt: as §2

MYLK = target: T23, MYLK (Homo sapiens, UniProt Q15746); assay: scanMAX Kinase analysis panel (DiscoverX); assay type: binding; conditions: drug 1 μM in DMSO; from % control
T23 construct: purchased DiscoverX scanMAX Kinase analysis panel
Excerpt: as §2

CSNK1A1 = target: T24, CSNK1A1 (Homo sapiens, UniProt P48729); assay: scanMAX Kinase analysis panel (DiscoverX); assay type: binding; conditions: drug 1 μM in DMSO; from % control
T24 construct: purchased DiscoverX scanMAX Kinase analysis panel
T24 sequence (P48729 whole entry): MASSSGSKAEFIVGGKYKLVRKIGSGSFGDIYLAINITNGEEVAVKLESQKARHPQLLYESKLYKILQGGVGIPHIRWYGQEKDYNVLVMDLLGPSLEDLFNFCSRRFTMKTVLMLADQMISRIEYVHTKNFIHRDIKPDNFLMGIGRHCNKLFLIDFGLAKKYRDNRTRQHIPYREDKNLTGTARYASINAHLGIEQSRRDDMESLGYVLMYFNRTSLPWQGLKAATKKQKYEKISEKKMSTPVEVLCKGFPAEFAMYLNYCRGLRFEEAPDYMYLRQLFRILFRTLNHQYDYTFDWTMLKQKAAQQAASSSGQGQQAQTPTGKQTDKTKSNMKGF
Excerpt: as §2

HUNK = target: T25, HUNK (Homo sapiens, UniProt P57058); assay: scanMAX Kinase analysis panel (DiscoverX); assay type: binding; conditions: drug 1 μM in DMSO; from % control
T25 construct: purchased DiscoverX
Excerpt: as §2

PAK2 = target: T26, PAK2 (Homo sapiens, UniProt Q13177); assay: scanMAX Kinase analysis panel (DiscoverX); assay type: binding; conditions: drug 1 μM in DMSO; from % control
T26 construct: purchased DiscoverX scanMAX Kinase analysis panel
Excerpt: as §2

PHKG2 = target: T27, PHKG2 (Homo sapiens, UniProt P15735); assay: scanMAX Kinase analysis panel (DiscoverX); assay type: binding; conditions: drug 1 μM in DMSO; from % control
T27 construct: purchased DiscoverX scanMAX Kinase analysis panel
Excerpt: as §2

ALK(C1156Y) = target: T28, ALK(C1156Y) (Homo sapiens, UniProt Q9UM73, C1156Y); assay: scanMAX Kinase analysis panel (DiscoverX); assay type: binding; conditions: drug 1 μM in DMSO; from % control
T28 construct: purchased DiscoverX scanMAX Kinase analysis panel
Excerpt: as §2

CCNc1cc(Nc2ccc(C(=O)N3CCC(N4CCOCC4)CC3)cc2OC)nc2[nH]cc(C(F)(F)F)c12 [Compound 1, (4-((4-(ethylamino)-3-(trifluoromethyl)-1H-pyrrolo[2,3-b]pyridine-6-yl)amino)-3-methoxyphenyl)(4-morpholinopiperidine-1-yl)methanone]
MS (1 μM) (% remaining during 30 min) Mouse [1]: 40% | differentiation of Th17 cells ([2]; Th17 differentiation conditions): decreased | differentiation of regulatory T cells (Treg) ([2]; regulatory T cell differentiation conditions): increased | MS (1 μM) (% remaining during 30 min) Human [3]: 39% | CYP (10 μM) (% of control activity 2D6) (CYP 2D6): 92% | CYP (10 μM) (% of control activity 2C19) (CYP 2C19): 84% | CYP 3A4 enzyme inhibition activity (in words) (CYP 3A4): almost no enzyme inhibition activity | CYP (10 μM) (% of control activity 3A4) (CYP 3A4; 10 μM): 72% | CYP (10 μM) (% of control activity 2C9) (CYP 2C9): 74% | CYP (10 μM) (% of control activity 1A2) (CYP 1A2): 86% | inhibition at 1 µM (ERK5): 40 to 59% | inhibition at 1 µM (MAPKAPK2): 40 to 59% | inhibition at 1 µM (CSNK1D): ≥ 59% | inhibition at 1 µM (JNK1): ≥ 59% | inhibition at 1 µM (ALK(L1196M)): ≥ 59% | inhibition at 1 µM (LTK): ≥ 59% | inhibition at 1 µM (ABL1-nonphosphorylated): 40 to 59% | inhibition at 1 µM (CHEK2): 40 to 59% | inhibition at 1 µM (LRRK2): 40 to 59% | inhibition at 1 µM (PHKG1): ≥ 59% | inhibition at 1 µM (STK39): 40 to 59% | inhibition at 1 µM (GAK): ≥ 59% | inhibition at 1 µM (JNK3): 40 to 59% | inhibition at 1 µM (INSR): 40 to 59% | inhibition at 1 µM (PLK4): 40 to 59% | inhibition at 1 µM (JNK2): 40 to 59% | inhibition at 1 µM (STK33): ≥ 59% | inhibition at 1 µM (LRRK2(G2019S)): ≥ 59% | inhibition at 1 µM (CAMKK2): 40 to 59% | inhibition at 1 µM (CAMK2D): 40 to 59% | inhibition at 1 µM (ALK): ≥ 59% | inhibition at 1 µM [4]: 40 to 59% | inhibition at 1 µM (MYLK): ≥ 59% | inhibition at 1 µM (CSNK1A1): 40 to 59% | inhibition at 1 µM (HUNK): 40 to 59% | inhibition at 1 µM (PAK2): ≥ 59% | inhibition at 1 µM (PHKG2): ≥ 59% | inhibition at 1 µM (ALK(C1156Y)): ≥ 59%
